According to publication PMC10828444, “Selective inhibition of overactive warmth-sensitive Ca^2+-permeable TRPV3 channels by antispasmodic agent flopropione for alleviation of skin inflammation” (The Journal of Biological Chemistry, 2023):

How the values were obtained:
hTRPV3 R509A mutant = biological target: T1, hTRPV3 R509A mutant (Homo sapiens, UniProt Q8NET8, R509A); assay: Whole-cell recordings of TRPV3 R509A mutant; type: cell-based; settings: 100 μM flopropione, 2-APB
T1 construct: expressed in transfected cells; host or cells: HEK293
T1 sequence (Q8NET8 1-790 R509A): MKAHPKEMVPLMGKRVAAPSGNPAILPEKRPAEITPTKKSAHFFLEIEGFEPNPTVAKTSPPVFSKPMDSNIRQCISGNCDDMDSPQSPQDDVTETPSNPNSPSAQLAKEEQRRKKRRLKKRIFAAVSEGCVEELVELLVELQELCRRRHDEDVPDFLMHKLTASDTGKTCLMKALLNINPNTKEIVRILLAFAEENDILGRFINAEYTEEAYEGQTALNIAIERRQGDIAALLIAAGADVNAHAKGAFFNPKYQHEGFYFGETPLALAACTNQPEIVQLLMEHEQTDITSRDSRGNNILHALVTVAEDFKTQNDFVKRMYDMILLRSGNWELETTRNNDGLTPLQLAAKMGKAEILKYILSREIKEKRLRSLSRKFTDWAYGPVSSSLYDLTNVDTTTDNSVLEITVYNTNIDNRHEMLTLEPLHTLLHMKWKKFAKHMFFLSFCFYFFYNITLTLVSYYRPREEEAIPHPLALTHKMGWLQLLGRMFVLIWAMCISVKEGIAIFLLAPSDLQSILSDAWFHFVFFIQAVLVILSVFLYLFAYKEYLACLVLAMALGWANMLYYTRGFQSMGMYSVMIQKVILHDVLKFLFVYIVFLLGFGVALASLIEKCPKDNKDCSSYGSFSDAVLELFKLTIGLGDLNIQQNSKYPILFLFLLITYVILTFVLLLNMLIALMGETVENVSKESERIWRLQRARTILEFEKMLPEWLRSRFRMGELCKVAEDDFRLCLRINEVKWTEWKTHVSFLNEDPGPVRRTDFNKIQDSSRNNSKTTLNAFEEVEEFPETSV
Description: HEK293 cells were cultured in Dulbecco’s modified Eagle’s medium (DMEM, Gibco) containing 4.5 g/L D-glucose supplemented with 10% fetal bovine serum based at 37 °C with 5% CO2. For whole-cell patch-clamp recordings, cells were grown in glass coverslips for 24 h before transient transfections with 3000 ng cDNAs of hTRPV3 (gene accession number BC104866.1), hTRPV1 (accession number NM_080704.3), mTRPV2 (accession number NM_011706.2), hTRPV4 (accession number NM_021625.5), hTRPA1 (accession number NM_007332.3) and hTRPM8 (accession number NM_024080.5) into HEK293 cells grown in a 35-mm cell culture dish using Lipofectamine 2000 (Invitrogen). Cells were used 18 ∼ 24 h after transfection. All WT or mutant hTRPV3 plasmids were validated by DNA sequencing.
Whole-cell patch clamp recordings of wild-type and mutants were carried out at room temperature using the HEKA EPC10 amplifier powered by PatchMaster software (HEKA) or MultiClamp 700B amplifier driven by Clampex 11.0.3 software. The borosilicate glass pipettes were pulled and fire-polished to 3∼6 MΩ using a DMZ universal electrode puller (Zeitz-Instruments, GmbH). Pipette solution and bath solution both contained (in mM): 130 NaCl, three HEPES, and 0.2 EDTA (pH = 7.4). Cell membrane potential was held at 0 mV, currents were recorded at a voltage ramp from −100 to +100 mV for 500-ms and analyzed at ±80 mV.

[1] = tested on: DNFB-induced dorsal skin inflammation; assay: Mouse model of dorsal skin inflammation (atopic dermatitis) induced by DNFB; type: in vivo, C57BL/6J mice
Description: Mice were placed in a gas anesthesia device (SurgiVet) for anesthesia before the hair on the back was removed with a razor, followed by the application of an appropriate amount of hair removal cream to gently shave off the remaining hair. For generation of atopic dermatitis and ear swelling, chemical skin sensitizer DNFB (1-Fluoro-2,4-dinitrobenzene), commonly known as Sanger’s Reagent, was dissolved in a solvent (acetone/olive oil = 4/1, v/v) and 0.5% DNFB in 100 μl was applied once topically to the back and right ear for skin sensitization 1 day after acclimatization for hair removal ([43]) without any treatment for next 3 days. On the fifth and sixth days, 0.2% DNFB in 50 μl was applied topically once a day for 2 days for challenge before different concentrations of flopropione in 100 μl were topically applied once a day for four consecutive days. First application of topical flopropione started half an hour after the last application of 0.2% DNFB challenge. For the effect of flopropione on skin inflammation, topical flopropione (0.1 mM, 1 mM or 10 mM) in 100 μl was applied into ear and shaved area of dorsal skin by swabbing once a day for four consecutive days.
The score contents and criteria include (1): skin erythematous/bleeding (2), skin scratches/erosion (3), skin edema (4), skin scaling or lichenoid change ([44]). Each symptom was scored from 0 to 3 (none, 0; mild, one; moderate, two; severe, (3). The final score was defined as the sum of individual scores on a scale from 0 to 12. Mouse ear thickness was measured once a day for continuous 5 days with the first measurement of ear thickness 30 min after the last application of 0.2% DNFB using vernier caliper.
Mice were anesthetized with 1.0% isoflurane before sacrifice 24 h after the last treatment ([31], [32], [43]). Mouse dorsal skin was removed with scissors and forceps before fixed with 4% paraformaldehyde. Paraffin-embedded tissues were sectioned and stained with hematoxylin and eosin. Stained sections were observed using bright-field microscopy (ECLIPSE Ti-S, Nikon) and CCD-camera (DS-Ri2, Nikon).

CCC(=O)c1c(O)cc(O)cc1O [flopropione]
sensitivity of R509A mutant to flopropione inhibition (hTRPV3 R509A mutant): maintained the sensitivity to flopropione inhibition
dorsal skin inflammation (phenotype) ([1]; topical 0.1–10 mM, once a day for 4 days, vs DNFB alone): alleviated the skin inflammation in concentration-dependent manner
dermatitis scores ([1]; topical 0.1–10 mM, vs DNFB alone group, n = 5): significantly reduced the dermatitis scores
skin hyperkeratosis and lesion (histology, dorsal skin thickness) ([1]; topical 0.1 ∼ 10 mM, H&E sections, vs DNFB alone): reduced mouse skin hyperkeratosis and lesion
